Source: patent US10253002B2, “Compounds and methods of treating infections” (Neoculi Pty Ltd., priority 2013, dated 2019)
Converted amounts (≈) assume the structure as drawn. Like-named read-outs stand apart in the source and are kept apart here.

Assays:
[1] = tested on: Salmonella arizonae; test: Broth microdilution MIC, Example 7; format: cell-based; conditions: S. arizonae
Method: Minimum inhibitory concentrations (μg/ml) were determined using the broth microdilution method recommended by the Clinical and Laboratory Standards Institute (CLSI). […] Bacterial growth (turbidity) in the wells with antimicrobial was compared with the amount of growth (turbidity) in the growth-control well (containing no antimicrobial). All isolates were tested in duplicate, if there was a difference of greater than one two-fold dilution in the results, the test was repeated a third time. The purity of the isolates was closely monitored during testing by subculturing the prepared bacterial inoculum onto SBA (sheep blood agar). The MICs of the control strains for the antimicrobial ampicillin were determined for each testing run as an internal quality control. The MIC50, […] and MIC range (minimum and maximum) were calculated for each of the bacterial groups.

[2] = tested on: Staphylococcus pseudintermedius isolates (MSSP and MRSP); test: MIC (CLSI), Example 6; format: cell-based
Method: Anti-staphylococcal compounds were then tested against all 23 isolates and minimum inhibitory concentrations (MIC) were determined according to standard protocols. After the MICs were determined, the minimum bactericidal concentrations were performed to determine if these compounds are bacteriostatic or bacteriocidal.

[3] = tested on: VRE; test: Broth microdilution MIC, Example 7 (NCL812 and analogues); format: cell-based, Enterococcus spp.; conditions: Enterococcus, VRE
Procedure, shortened: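 Turbidity read visually and then at 600 nm defined the MIC (μg/ml), comparing drug-containing wells with a growth-control well lacking antimicrobial. Testing followed the CLSI broth microdilution method, in duplicate, using two strains per organism group.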

[4] = Staphylococcus pseudintermedius isolates

Structure (SMILES): CC1(C)S[C@@H]2[C@H](NC(=O)[C@H](N)c3ccccc3)C(=O)N2[C@H]1C(=O)O [Ampicillin]
- MIC ([1]; 2nd): 1 µg/mL (≈ 2.86 µM)
- MIC ([1]; Salmonella enterica, 1st, read-out: MIC): 1 µg/mL (≈ 2.86 µM)
- MIC50 [2, 4]: 32 µg/mL (≈ 91.6 µM)
- MIC90 [2, 4]: 128 µg/mL (≈ 366 µM)
- MIC range [2, 4]: 0.1 to 128 µg/mL
- MIC ([2]; Staphylococcus pseudintermedius, Staphylococcus pseudintermedius isolates, read-out: MIC mode): 128 µg/mL (≈ 366 µM)
- MIC ([2]; Staphylococcus pseudintermedius, isolate S5P5, read-out: MIC): 16 µg/mL (≈ 45.8 µM)
- MIC ([2]; Staphylococcus pseudintermedius, isolate S6P6, read-out: MIC): 64 µg/mL (≈ 183 µM)
- MIC ([2]; Staphylococcus pseudintermedius, isolate S9P9, read-out: MIC): 32 µg/mL (≈ 91.6 µM)
- MIC ([2]; Staphylococcus pseudintermedius, isolate S10P10, read-out: MIC): 64 µg/mL (≈ 183 µM)
- MIC ([2]; Staphylococcus pseudintermedius, isolate S12P12, read-out: MIC): 32 µg/mL (≈ 91.6 µM)
- MIC ([2]; Staphylococcus pseudintermedius, isolate S13P13, read-out: MIC): 0.25 µg/mL (≈ 0.715 µM)
- MIC ([2]; Staphylococcus pseudintermedius, isolate S14P14, read-out: MIC): 1 µg/mL (≈ 2.86 µM)
- MIC ([2]; Staphylococcus pseudintermedius, isolate S15P15, read-out: MIC): 4 µg/mL (≈ 11.4 µM)
- MIC ([2]; Staphylococcus pseudintermedius, isolate S16P16, read-out: MIC): 0.25 µg/mL (≈ 0.715 µM)
- MIC ([2]; Staphylococcus pseudintermedius, isolate S17P17, read-out: MIC): 1 µg/mL (≈ 2.86 µM)
- MIC ([2]; Staphylococcus pseudintermedius, isolate S18P18, read-out: MIC): 4 µg/mL (≈ 11.4 µM)
- MIC ([2]; Staphylococcus pseudintermedius, isolate S19P19, read-out: MIC): 0.5 µg/mL (≈ 1.43 µM)
- MIC ([2]; Staphylococcus pseudintermedius, isolate S20P20, read-out: MIC): 4 µg/mL (≈ 11.4 µM)
- MIC ([2]; Staphylococcus pseudintermedius, isolate S21P21, read-out: MIC): 0.1 µg/mL (≈ 0.286 µM)
- MIC ([2]; Staphylococcus pseudintermedius, isolate S22P22, read-out: MIC): 8 µg/mL (≈ 22.9 µM)
- MIC ([2]; Staphylococcus pseudintermedius, isolate S23P23, read-out: MIC): 32 µg/mL (≈ 91.6 µM)
- MIC ([2]; isolate S1P1): 128 µg/mL (≈ 366 µM)
- MIC ([2]; isolate S3P3): 128 µg/mL (≈ 366 µM)
- MIC ([2]; isolate S4P4): 128 µg/mL (≈ 366 µM)
- MIC ([2]; isolate S7P7): 128 µg/mL (≈ 366 µM)
- MIC ([2]; isolate S8P8): 128 µg/mL (≈ 366 µM)
- MIC ([2]; isolate S11P11): 128 µg/mL (≈ 366 µM)
- MIC ([3]; 24 h, read-out: MIC (μg/ml) at 24 hours, VRE 1, isolate VRE 1, 24 hours, 1st and 2nd replicate rows): 0.5 µg/mL (≈ 1.43 µM)
- MIC ([3]; 24 h, read-out: MIC (μg/ml) at 24 hours, VRE 2, isolate VRE 2, 24 hours, 1st and 2nd replicate rows): 0.25 µg/mL (≈ 0.715 µM)
- MIC ([3]; VRE 002 [H12c], Phase I, 1st, read-out: MIC): 1 µg/mL (≈ 2.86 µM)
- MIC ([3]; VRE 002 [H12c], Phase I, 2nd, read-out: MIC): 1 µg/mL (≈ 2.86 µM)
- MIC ([3]; VRE 002 [H12c], Phase II, 1st, read-out: MIC): 0.25 µg/mL (≈ 0.715 µM)
- MIC ([3]; VRE 002 [H12c], Phase II, 2nd, read-out: MIC): 0.25 µg/mL (≈ 0.715 µM)
- MIC ([3]; VRE 003 [H14t], Phase I, 1st, read-out: MIC): 0.5 µg/mL (≈ 1.43 µM)
- MIC ([3]; VRE 003 [H14t], Phase I, 2nd, read-out: MIC): 0.5 µg/mL (≈ 1.43 µM)
- MIC ([3]; VRE 003 [H14t], Phase II, 1st, read-out: MIC): 0.25 µg/mL (≈ 0.715 µM)
- MIC ([3]; VRE 003 [H14t], Phase II, 2nd, read-out: MIC): 0.25 µg/mL (≈ 0.715 µM)
- MIC ([3]; VRE 004 [H16c], Phase I, 1st, read-out: MIC): 1 µg/mL (≈ 2.86 µM)
- MIC ([3]; VRE 004 [H16c], Phase I, 2nd, read-out: MIC): 1 µg/mL (≈ 2.86 µM)
- MIC ([3]; VRE 004 [H16c], Phase II, 1st, read-out: MIC): 0.25 µg/mL (≈ 0.715 µM)
- MIC ([3]; VRE 004 [H16c], Phase II, 2nd, read-out: MIC): 0.25 µg/mL (≈ 0.715 µM)
- MIC ([3]; VRE 005 [H17c], Phase I, 1st, read-out: MIC): 1 µg/mL (≈ 2.86 µM)
- MIC ([3]; VRE 005 [H17c], Phase I, 2nd, read-out: MIC): 1 µg/mL (≈ 2.86 µM)
- MIC ([3]; VRE 005 [H17c], Phase II, 1st, read-out: MIC): 0.25 µg/mL (≈ 0.715 µM)
- MIC ([3]; VRE 005 [H17c], Phase II, 2nd, read-out: MIC): 0.25 µg/mL (≈ 0.715 µM)
- MIC ([3]; VRE 006 [H19t], Phase I, 1st, read-out: MIC): 1 µg/mL (≈ 2.86 µM)
- MIC ([3]; VRE 006 [H19t], Phase I, 2nd, read-out: MIC): 1 µg/mL (≈ 2.86 µM)
